Here are results for 13 molecules from patent US4780467A, “Esters of N-alkyl-nortropines and their quaternary derivatives having anti-bronchospastic activity, and pharmaceutical compositions containing them” (Laboratori Guidotti Spa, priority 1986, dated 1988).

Where two headings read alike, the source gives them in different places.

Series [1] relates to bronchospasm induced by acetyl choline aerosol in guinea pig. The experiment in a line: inhibition of bronchospasm induced by acetyl choline aerosol in awake guinea pig. Format: in vivo. Particulars: for ED50: Cavia porcellus, iv; for ED50, inhibition of bronchospasm induced by acetyl choline aerosol: i.v.
Series [2] has as its system PAF-acether induced bronchospasm in guinea pig. The experiment in a line: inhibition of PAF-acether induced bronchospasm in anestetized guinea pig. Format: in vivo. Particulars: for inhibition of PAF-acether induced bronchospasm (in words): up to 3 μmol/kg; for inhibition % of PAF-acether induced bronchospasm: guinea pig, i.v.
For series [3], the system named is isolated trachea of guinea pig. As to the kind of experiment: relaxation of isolated trachea of guinea pig precontracted with methacoline. Conditions: Cavia porcellus, read-out: IC50, relaxing the contraction of the isolated trachea of guinea pig precontracted with methacoline. An excerpt:
The compounds of the invention have been pharmacologically studied by means of in vitro and in vivo tests, suitable to evidence the anti-bronchospastic properties of the compounds. […] To this action a remarkable anti-bronchospastic action in the tests in vivo corresponded after administration by i.v. and inhalatory route.

Series [4] in a line: acute toxicity in the mouse. Conditions: in vivo; for LD50: approximate value; for selectivity ratio: ratio os/i.p., read-out: LD50 os/i.p.
Series [5] concerns platelet aggregation (rabbit prp) from arachidonic acid. As to the kind of experiment: platelet aggregation (rabbit prp) from arachidonic acid. Format: cell-based. Conditions: Oryctolagus cuniculus.
Series [6] has as its system platelet aggregation (rabbit prp) from PAF acether. The experiment in a line: platelet aggregation (rabbit prp) from PAF-acether. Particulars: Oryctolagus cuniculus. Format: cell-based.
The subject of series [7] is platelet aggregation (rabbit prp) from collagen. The experiment in a line: platelet aggregation (rabbit prp) from collagen. Format: cell-based. Particulars: Oryctolagus cuniculus.
The mark [8] stands for this setting: ip, read-out: approximate value of LD50, i.p.
Where [9] appears, read: po, os, read-out: approximate value of LD50, os.

Turning to `CN1[C@@H]2CC[C@H]1C[C@@H](OC(=O)C(CO)c1ccccc1)C2` (stereo partly drawn) [Atropine sulphate, atropine sulphate, reference compound], in series [1], the ED50 (commonly the midpoint of the dose-response relation) turned out to be 0.068 µmol/kg and the “ED50, inhibition of bronchospasm induced by acetyl choline aerosol” value (shortened to “ED50, inhibition of bronchospasm induced”) was 68 nmol/kg. In series [2] (anestetized guinea pig), the “inhibition of PAF-acether induced bronchospasm (in words)” value is “fully inactive”. Also, the “inhibition % of PAF-acether induced bronchospasm” value (from here on “inhibition %”) in series [2] (3 μmol kg^-1) was determined as 0%. In addition, in series [3], the IC50 (in general, the concentration that inhibits the measured activity by half) amounted to 6.9 nM.
`CCCN1[C@@H]2CC[C@H]1C[C@@H](OC(=O)C1CCCC=C1c1ccccc1)C2` (stereo partly drawn) [Example 5, Endo-3-(2-phenyl-2-cyclohexen-1-carbonyloxy)-8-sin-propyl-8-azabicyclo-[3.2.1.]-octane] came in with an ED50 in series [1] greater than 7.7 µmol/kg. In addition, in series [3], the IC50 was 1700 nM.
As for `CN1[C@@H]2CC[C@H]1C[C@@H](OC(=O)CC1=C(c3ccccc3)CCCC1)C2` [Example 6, Endo-3-(2-phenyl-1-cyclohexen-1-acetoxy)-8-sin-methyl-8-azabicyclo-[3.2.1.]-octane], in series [1], the ED50 was roughly 15 µmol/kg. In addition, the IC50 in series [3] came to 4200 nM.
`CC(C)N1[C@@H]2CC[C@H]1C[C@@H](OC(=O)CC1=C(c3ccccc3)CCCC1)C2` [Example 7, Endo-3-(2-phenyl-1-cyclohexen-1-acetoxy)-8-sin-isoproyl-8-azabicyclo-[3.2.1.]-octane]: the ED50 in series [1] is greater than 7.4 µmol/kg. Further, in series [3], the IC50 came to 30000 nM.
For the molecule `C[N+]1(C)[C@@H]2CC[C@H]1C[C@@H](OC(=O)CC1=C(c3ccccc3)CCCC1)C2` [Example 8, Endo-3-(2-phenyl-1-cyclohexen-1-acetoxy)-8,8-dimethyl-8-azoniabicyclo-[3.2.1.]-octane iodide], the figures for the LD50 in series [4] (setting [8]) and in series [4] (setting [9]) were 45 mg/kg and 800 mg/kg, respectively. The selectivity ratio in series [4] (ip) turned out to be 18. For the same molecule, the IC50 in series [3] is 1.1 nM.
On to `CC[N+]1(C)[C@@H]2CC[C@H]1C[C@@H](OC(=O)CC1=C(c3ccccc3)CCCC1)C2` (stereo partly drawn) [Example 9, Endo-3-(2-phenyl-1-cyclohexen-1-acetoxy)-8-sin-methyl-8-ethyl-8-azoniabicyclo-[3.2.1.]-octane iodide], for which the ED50 in series [1] is roughly 0.4 µmol/kg. Further, the IC50 in series [3] stood at 32 nM.
For the molecule `CC(C)[N+]1(C)[C@@H]2CC[C@H]1C[C@@H](OC(=O)C1CCCC=C1c1ccccc1)C2` (stereo partly drawn) [Example 13, Endo-3-(2-phenyl-2-cyclohexen-1-carbonyloxy)-8-sin-isopropyl-8-methyl-8-azoniabicyclo-[3.2.1.]-octane iodide], the IC50 is greater than 100 µM in series [5], 39.1 µM in series [6], 0.67 nM in series [3] and greater than 100 µM in series [7]. Also, the values for the LD50 in series [4] (setting [8]) and in series [4] (setting [9]) were 123 mg/kg and 500 mg/kg, respectively. Further, the selectivity ratio in series [4] (ip) stood at 4.1. Moreover, the results for the “inhibition %” value in series [2] (0.3 μmol kg^-1) and in series [2] (3 μmol kg^-1) were 0% and 28 ± 13%, respectively.
Regarding `CC[N+]1(C(C)C)[C@@H]2CC[C@H]1C[C@@H](OC(=O)C1CCCC=C1c1ccccc1)C2` (stereo partly drawn) [Example 14, Endo-3-(2-phenyl-2-cyclohexen-1-carbonyloxy)-8-sin-isopropyl-8-ethyl-8-azoniabicylo-[3.2.1.]-octane iodide], the IC50 is greater than 100 µM in series [5], 29.9 µM in series [6] and greater than 100 µM in series [7]. The values for the LD50 in series [4] (setting [8]) and in series [4] (setting [9]) were 91 mg/kg and 300 mg/kg, respectively. Moreover, the selectivity ratio in series [4] (ip) was 3.3. Besides, the “ED50, inhibition of bronchospasm induced” value in series [1] (listed as 1st formula, 2nd R, R'=CH2CH3) worked out at 22 nmol/kg. For the same molecule, the entries for the “inhibition %” value in series [2] (0.3 μmol kg^-1) and in series [2] (3 μmol kg^-1) were 0% and 42 ± 14%, respectively.
For `CC[N+]1(C)[C@@H]2CC[C@H]1C[C@@H](OC(=O)C1CCCC=C1c1ccccc1)C2` (stereo partly drawn) [Example 20, Endo-3-(2-phenyl-2-cyclohexen-1-carbonyloxy)-8-sin-ethyl-8-methyl-8-azoniabicyclo-[3.2.1.]-octane iodide], the IC50 in series [5] was greater than 100 µM; in series [6], 7.7 µM; in series [3] it was 0.95 nM; in series [7], greater than 100 µM. Further, the LD50 – broadly, the dose expected to kill half of the subjects tested – in series [4] (setting [8]) turned out to be 126 mg/kg; in series [4] (setting [9]) it was 350 mg/kg. In series [4] (ip), the selectivity ratio worked out at 2.8. The results for the “inhibition %” value in series [2] (0.3 μmol kg^-1) and in series [2] (3 μmol kg^-1) were 3 ± 11% and 36 ± 17%, respectively.
For the molecule `CC[N+]1(CC)[C@@H]2CC[C@H]1C[C@@H](OC(=O)C1CCCC=C1c1ccccc1)C2` (stereo partly drawn) [Example 21, Endo-3-(2-phenyl-2-cyclohexene-1-carbonyloxy)-8,8-di-ethyl-azoniabicyclo-[3.2.1.]-octane iodide], the IC50 was greater than 100 µM in series [5], 2.4 µM in series [6], 0.03 nM in series [3] and greater than 100 µM in series [7]. Also, the LD50 in series [4] (setting [8]) is 107 mg/kg; in series [4] (setting [9]), 800 mg/kg. For the same molecule, in series [4] (ip), the selectivity ratio turned out to be 7.5. Also, the ED50 in series [1] was determined as 0.029 µmol/kg; in series [2] (Cavia porcellus, anestetized guinea pig), 0.8 µmol/kg. Further, the “inhibition %” value worked out at 43 ± 16% in series [2] (0.3 μmol kg^-1) and 64 ± 16% in series [2] (3 μmol kg^-1).
As to `CCC[N+]1(C)[C@@H]2CC[C@H]1C[C@@H](OC(=O)C1CCCC=C1c1ccccc1)C2` (stereo partly drawn) [Example 25, Endo-3-(2-phenyl-2-cyclohexen-1-carbonyloxy)-8-sin-propyl-8-methyl-8-azoniabicyclo-[3.2.1.]-octane iodide], the LD50 in series [4] (setting [8]) is 124 mg/kg; in series [4] (setting [9]) it was 600 mg/kg. Besides, the selectivity ratio in series [4] (ip) came out at 4.8. In addition, the IC50 in series [3] was 3.3 nM.
Turning to `CC[N+]1(C(C)C)[C@@H]2CC[C@H]1C[C@@H](OC(=O)CC1=C(c3ccccc3)CCCC1)C2` (stereo partly drawn) [Example 32, Endo-3-(2-phenyl-1-cyclohexen-1-acetoxy)-8-sin-isopropyl-8-ethyl-8-azoniabicyclo-[3.2.1.]-octane iodide], the ED50 in series [1] was greater than 5.7 µmol/kg. In addition, in series [3], the IC50 was 9000 nM.
For `CC(C)[N+]1(C)[C@@H]2CC[C@H]1C[C@@H](OC(=O)C(CO)c1ccccc1)C2` (stereo partly drawn) [ipratropium bromide, reference compound], in series [1], the 50% effect level (ED50) was put at a dose of 0.012 µmol/kg and the “ED50, inhibition of bronchospasm induced” value worked out at 12 nmol/kg. The “inhibition of PAF-acether induced bronchospasm (in words)” value in series [2] (anestetized guinea pig) was “fully inactive”. For the same molecule, the “inhibition %” value in series [2] (3 μmol kg^-1) is 7 ± 10%. The IC50 in series [3] came out at 2 nM.
